In US20260248799A1, “COMBINATIONS OF RETINALDEHYDE DEHYDROGENASE 1 (RALDH1) INHIBITORS AND IMMUNOSTIMULATORS AND METHODS USING SAME” (The Trustees of the University of Pennsylvania, priority 2023, published 2026):

Tests used:
[1] = Pharmacokinetics IV and PO in CD-1 mice, plasma; type: in vivo; conditions: mouse plasma
From the text: The PK studies were done at NIH or a commercial CRO—Pharmacon using their in-house standard protocol. […] For C99, IV and PO, performed at NIH using CD-1 mice; formulation: 20% HPbCD in saline.

[2] = test system: SNU398 human HCC cells; experiment: AldeRed (Aldefluor) assay in SNU398 cells; type: cell-based
Method: The AldeRed assay (EMD Millipore) was performed according to manufacturer's instructions to identify cells with ALDH activity. In brief, single-cell suspensions of Huh7, Huh1, SNU449, SNU398, HEP3B, PLC, Hepa 1-6, Hep55, and AL458A cultured cells or single-cell suspension generated from enzymatic digestion of tumors generated from transplantation of these cells in mice (as indicated in figure legends) were incubated with a fluorescent and non-toxic ALDH substrate (AldeRed 588-A); the fluorescent product accumulates in cells proportional to their ALDH activity. The amount of fluorescence produced is measured by flow cytometry. The ALDH inhibitor diethylaminobenzaldehyde (DEAB, provided with the AldeRed assay kit) was used as a negative control for background fluorescence assessment.
The Aldefluor assay has been used to identify and isolate cells with high ALDH activities. This assay is based on the principle that ALDH can convert the ALDH-substrate, Bodipy-aminoacetaldehyde (BAAA) into Bodipy-aminoacetate (BAA) which is retained inside the cells. BAAA is uncharged and can diffuse freely into intact viable cells, however BAA cannot cross the membrane due to its net negative charge, which makes remain in the cells and the assay buffer prevents efflux of the BAA from the cells. Therefore, the amount of BAA fluorescence in cells is proportional to ALDH activity and can be measured using a flow cytometer. A specific inhibitor of ALDH, diethylaminobenzaldehyde (DEAB), is used for background fluorescence control.

[3] = target: T1, Calcium Channel N-Type (Rattus norvegicus, UniProt Q02294); experiment: Safetyscreen: Ca channel N-type; type: binding; conditions: read-out: % Inh. Calcium Channel N-Type
T1 construct: purchased Eurofins Cereps Panlabs

[4] = test system: ATPase, Na+/K+, Heart, Pig; experiment: Safetyscreen: ATPase, Na+/K+; type: biochemical; conditions: 10 μM
[5] = test system: Transporter, Adenosine; experiment: Safetyscreen: Adenosine transporter; type: binding, guinea pig; conditions: 10 μM
[6] = target: T2, Adrenergic α1D (Homo sapiens, UniProt P25100); experiment: Safetyscreen: Adrenergic α1D; type: binding; conditions: read-out: % Inh. Adrenergic α1D
T2 construct: Eurofins Cerep Panlabs (contract panel)

[7] = target: T3, Serotonin (5-Hydroxytryptamine) 5-HT1A (Homo sapiens, UniProt P08908); experiment: Safetyscreen: 5-HT1A; type: binding; conditions: read-out: % Inh. Serotonin (5-Hydroxytryptamine) 5-HT1A
T3 construct: Eurofins Cereps Panlabs (contract panel)

[8] = test system: Hepa 1-6 tumors; experiment: Hepa 1-6 tumors in mice; type: in vivo, mouse; conditions: Hepa 1-6 in C57BL6/J mice treated with anti-CD3; i.p., 20 mg/kg every day
Method: FIGS. 28A-28G: C99 inhibits murine RALDH1 and suppresses murine HCC growth. FIG. 28A: AldeRed assay was performed on Hepa1-6 (murine HCC, left graph) and SNU398 (human HCC, right graph) cells with or without different concentration of C99 (x-axis). Shown is the percentage of AldeRed-positive cells (y-axis) after 24 hours exposure to C99. Murine RALDH1 is sensitive to C99. FIG. 28B: Hepa1-6 cells were treated with different concentrations of C99 in vitro and the number of viable cells were counted at different time points. […] FIG. 28C: C57BL6/J mice were implanted subcutaneously with Hepa1-6 cells and the tumor-bearing mice. To prevent spontaneous rejection of this cell line, mice were treated with anti-CD3. Once the tumors reached around 50 mm^3 size, mice were treated with C86 or C99 (i.p., 20 mg/kg) every day. […] C99, but not C86, suppresses murine HCC growth. Two independent experiments were performed with at least three replicates per experimental group. Unpaired t test, two-tailed. FIG. 28D: Tumors in (FIG. 28C) were harvested at endpoint, single-cell suspension generated, and AldeRed assay was performed along with surface staining with immune cell markers. Shown is the percentage of AldeRed-positive cells in nonleukocytes (CD45 negative, mostly tumor cells) under the different treatment conditions. Two independent experiments were performed with at least three replicates per experimental group. Unpaired t test, two-tailed. FIG. 28E: FCS base frequency of Macrophages (F4/80^+ cells) within CD45^+ leukocytes in tumor tissues from experiment outlined in (FIGS. 28C-28D). Two independent experiments were performed with at least three replicates per experimental group. Unpaired t test, two-tailed. FIG. 28F: Hepa1-6 tumor-bearing NU/J mice were treated with chlodronate liposomes (CloLipo) and/or C86/C99. CloLipo treatment suppresses tumor growth and renders tumors insensitive to C99. Two independent experiments were performed with at least three replicates per experimental group. Unpaired t test, two-tailed. FIG. 28G: The murine fibrosarcoma (FS) cell line was implanted subcutaneously into C57BL6/J mice. Mice were treated with 25 mg/kg of C-99 or vehicle everyday starting one day after tumor cell transplantation. *, P<0.05; **, P<0.01; ***, P<0.001; ns, not significant.
Cultured Huh7, Huh1, Hepa 1-6, Hep55, and FS (as indicated in figure legends) tumor cells were detached using 0.25% trypsin (Gibco, catalog #25200056), washed once with 1×PBS, and counted before implantation. 3~6×10^6 tumor cells were implanted subcutaneously (s.c.) into shaved flanks of recipient mice. Tumor dimensions were measured using a caliper starting at the day indicated in the accompanying figure legend and every two to three days thereafter; volume was calculated by using formula Length*Width^2/2. Tumor volumes of 2,000 mm^3, tumor length of 2 cm or tumor ulceration were used as endpoints for survival analyses.
To deplete T cells, 200 μg of mouse CD3-specific antibody (clone 17A2) was administered i.p. starting three days before tumor implantation and repeated every three to four days until mouse sacrifice. To deplete macrophages, 200 μL of clodronate liposome (CloLipo) or PBS-liposome (CtrlLipo) (both Liposoma) was administered i.p. starting three days prior to tumor implantation and repeated every four days until mouse sacrifice. Macrophage depletion efficacy in spleen and within tumors was confirmed by flow cytometry using canonical macrophage marker F4/80. […]

[9] = test system: Glutamate, AMPA; experiment: Safetyscreen: Glutamate, AMPA; type: binding, rat; conditions: 10 μM
[10] = intravenous administration, 2 mg/kg

T2 sequence (P25100 whole entry): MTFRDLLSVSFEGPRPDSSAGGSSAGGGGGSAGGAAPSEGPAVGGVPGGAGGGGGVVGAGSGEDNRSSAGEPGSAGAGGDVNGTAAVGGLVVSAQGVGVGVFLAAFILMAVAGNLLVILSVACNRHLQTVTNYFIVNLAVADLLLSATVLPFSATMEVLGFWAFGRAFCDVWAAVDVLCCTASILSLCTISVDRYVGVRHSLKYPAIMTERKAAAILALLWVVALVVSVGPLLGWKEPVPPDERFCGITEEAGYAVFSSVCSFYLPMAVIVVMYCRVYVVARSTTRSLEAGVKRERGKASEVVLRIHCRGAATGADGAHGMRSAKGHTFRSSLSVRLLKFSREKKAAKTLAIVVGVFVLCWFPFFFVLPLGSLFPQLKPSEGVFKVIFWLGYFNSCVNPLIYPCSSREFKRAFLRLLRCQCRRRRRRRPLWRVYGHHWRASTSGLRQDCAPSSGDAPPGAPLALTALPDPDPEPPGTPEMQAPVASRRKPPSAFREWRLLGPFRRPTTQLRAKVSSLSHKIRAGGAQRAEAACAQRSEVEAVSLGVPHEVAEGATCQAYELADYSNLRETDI
T3 sequence (P08908 whole entry): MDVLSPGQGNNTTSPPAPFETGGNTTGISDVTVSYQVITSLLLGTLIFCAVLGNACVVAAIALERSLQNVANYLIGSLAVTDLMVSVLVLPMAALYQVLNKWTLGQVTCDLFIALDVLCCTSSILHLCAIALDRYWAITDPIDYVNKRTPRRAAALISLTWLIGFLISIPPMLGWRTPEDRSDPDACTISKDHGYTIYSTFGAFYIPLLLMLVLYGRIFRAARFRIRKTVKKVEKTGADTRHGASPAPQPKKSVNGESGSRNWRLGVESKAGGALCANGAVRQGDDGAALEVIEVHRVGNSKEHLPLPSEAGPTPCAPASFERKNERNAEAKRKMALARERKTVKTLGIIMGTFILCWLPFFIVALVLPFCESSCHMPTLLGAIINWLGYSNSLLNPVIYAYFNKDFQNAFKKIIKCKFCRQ
T1 sequence (Q02294 whole entry): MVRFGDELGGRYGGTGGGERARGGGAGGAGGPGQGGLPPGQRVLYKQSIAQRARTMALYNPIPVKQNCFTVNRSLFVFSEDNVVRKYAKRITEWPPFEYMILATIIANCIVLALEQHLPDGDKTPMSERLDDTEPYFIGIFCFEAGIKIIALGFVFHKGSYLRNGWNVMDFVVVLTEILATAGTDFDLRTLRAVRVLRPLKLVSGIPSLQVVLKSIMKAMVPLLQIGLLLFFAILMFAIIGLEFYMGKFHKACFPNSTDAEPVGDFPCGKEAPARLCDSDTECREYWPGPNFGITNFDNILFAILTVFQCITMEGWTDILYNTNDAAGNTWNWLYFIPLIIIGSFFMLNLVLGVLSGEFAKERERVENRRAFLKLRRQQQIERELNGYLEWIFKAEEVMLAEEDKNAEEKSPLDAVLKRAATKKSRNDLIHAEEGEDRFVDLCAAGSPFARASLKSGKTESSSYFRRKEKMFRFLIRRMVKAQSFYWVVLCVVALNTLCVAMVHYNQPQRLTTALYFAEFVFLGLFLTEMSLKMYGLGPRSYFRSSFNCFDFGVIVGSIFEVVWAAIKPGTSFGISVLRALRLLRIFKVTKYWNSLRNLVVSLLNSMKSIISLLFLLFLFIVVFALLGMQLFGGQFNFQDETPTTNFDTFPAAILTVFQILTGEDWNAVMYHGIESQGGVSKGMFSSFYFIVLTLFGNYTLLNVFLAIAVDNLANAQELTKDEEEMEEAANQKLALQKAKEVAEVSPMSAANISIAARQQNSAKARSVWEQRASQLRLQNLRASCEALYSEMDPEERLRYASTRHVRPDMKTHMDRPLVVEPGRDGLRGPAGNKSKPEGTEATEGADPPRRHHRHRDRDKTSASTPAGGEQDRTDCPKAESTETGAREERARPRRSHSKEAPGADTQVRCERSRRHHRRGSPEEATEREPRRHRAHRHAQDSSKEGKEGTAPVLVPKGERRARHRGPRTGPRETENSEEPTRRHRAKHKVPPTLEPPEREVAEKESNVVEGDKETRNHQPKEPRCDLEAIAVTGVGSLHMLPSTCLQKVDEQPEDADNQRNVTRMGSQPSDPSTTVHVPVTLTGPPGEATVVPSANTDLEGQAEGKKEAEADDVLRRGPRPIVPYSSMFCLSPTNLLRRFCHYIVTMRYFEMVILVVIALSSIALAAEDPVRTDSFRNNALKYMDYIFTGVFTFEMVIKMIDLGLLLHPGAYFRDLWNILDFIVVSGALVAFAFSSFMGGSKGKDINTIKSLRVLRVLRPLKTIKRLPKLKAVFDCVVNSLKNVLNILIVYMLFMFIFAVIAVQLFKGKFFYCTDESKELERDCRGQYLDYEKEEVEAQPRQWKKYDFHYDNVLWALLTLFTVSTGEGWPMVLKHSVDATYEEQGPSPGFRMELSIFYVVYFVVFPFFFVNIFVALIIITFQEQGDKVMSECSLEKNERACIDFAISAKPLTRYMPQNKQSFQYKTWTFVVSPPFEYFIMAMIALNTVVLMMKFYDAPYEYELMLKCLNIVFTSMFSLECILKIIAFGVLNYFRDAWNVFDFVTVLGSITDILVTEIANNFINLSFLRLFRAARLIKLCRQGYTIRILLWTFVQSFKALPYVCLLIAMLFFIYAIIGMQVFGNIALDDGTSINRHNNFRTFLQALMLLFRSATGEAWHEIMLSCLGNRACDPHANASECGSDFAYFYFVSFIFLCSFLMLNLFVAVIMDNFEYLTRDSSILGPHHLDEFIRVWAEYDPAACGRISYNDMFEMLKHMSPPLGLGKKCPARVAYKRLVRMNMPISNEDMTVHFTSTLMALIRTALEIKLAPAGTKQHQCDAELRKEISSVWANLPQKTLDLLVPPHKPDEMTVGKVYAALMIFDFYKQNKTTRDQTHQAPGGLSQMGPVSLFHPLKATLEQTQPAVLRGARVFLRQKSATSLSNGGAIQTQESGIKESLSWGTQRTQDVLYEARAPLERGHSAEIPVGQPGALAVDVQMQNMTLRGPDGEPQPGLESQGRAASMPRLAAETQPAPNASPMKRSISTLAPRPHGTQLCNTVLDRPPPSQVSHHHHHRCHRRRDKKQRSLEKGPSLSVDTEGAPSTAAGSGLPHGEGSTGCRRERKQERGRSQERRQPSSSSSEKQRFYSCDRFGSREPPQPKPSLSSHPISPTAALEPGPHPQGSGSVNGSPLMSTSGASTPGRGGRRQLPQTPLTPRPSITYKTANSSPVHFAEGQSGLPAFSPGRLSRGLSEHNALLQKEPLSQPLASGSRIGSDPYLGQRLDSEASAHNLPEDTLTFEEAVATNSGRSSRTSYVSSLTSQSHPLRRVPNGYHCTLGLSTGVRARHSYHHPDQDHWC

CS(=O)(=O)N1CCN(C(=O)c2cnc3ccc(F)cc3c2N2CCC(C#N)(c3ccccc3)CC2)CC1 [Compound C-86, 1-(6-fluoro-3-(4-(methylsulfonyl)piperazine-1-carbonyl)quinolin-4-yl)-4-phenylpiperidine-4-carbonitrile]
AUC0-∞ [1, 10]: 1141 ng·h/mL | Cmax [1, 10]: 2350 ng/mL | Vss [1, 10]: 0.7 L/kg | AUC0-∞ ([1]; oral administration, 10 mg/kg): 2518 ng·h/mL | Cmax ([1]; oral administration, 10 mg/kg): 1234 ng/mL | F ([1]; oral administration, 10 mg/kg): 44% | RALDH activity, Aldered assay, in HCC cells ([2]; FIGS. 7-8): significantly reduced RALDH activity | RALDH activity as detected by Aldered (Aldefluor) assay ([2]; SNU398 cells in vitro, 100 nM, DMSO control): abrogated | inhibition at 10 µM [3]: 6% | % Inh. ATPase, Na+/K+, Heart, Pig [4]: 2% | % Inh. Transporter, Adenosine [5]: 56% | inhibition at 10 µM [6]: 6% | inhibition at 10 µM [7]: 5% | tumor growth in vivo [8]: did not suppress | % Inh. Glutamate, AMPA [9]: 0%
